Experimental data taken from ChEMBL document CHEMBL4257454, “Study on the interaction between the 1,4,5,8-naphthalene diimide-spermine conjugate (NDIS) and DNA using a spectroscopic approach and molecular docking” (Medchemcomm, 2017).
Values belong to the compound of their own block, whether it stands above or below them. Active and inactive are the calls of the source. No cut-off for these calls is given here.

Columns and labels:
Clupeidae [1] = assay: Inhibition of ethidium bromide binding to herring sperm DNA assessed as DNA insertion at 3 mg by 1H NMR method
Clupeidae [2] = assay: Binding affinity to herring sperm DNA at 40 uM after 30 mins in presence of Na+ by fluorescence quenching method
Clupeidae [3] = assay: Binding affinity to herring sperm DNA assessed as quenching constant at 298 K by fluorescence spectroscopic method
Clupeidae [4] = assay: Binding affinity to herring sperm DNA assessed as Stern-Volmer quenching constant at 298 K by fluorescence spectroscopic method
Clupeidae [5] = assay: Binding affinity to herring sperm DNA assessed as Stern-Volmer quenching constant at 310 K by fluorescence spectroscopic method
Clupeidae [6] = assay: Binding affinity to herring sperm DNA assessed as blue shift at 16 to 48 uM up to 30 mins by circular dichroism method
Clupeidae [7] = assay: Binding affinity to herring sperm DNA assessed as negative peak at 16 to 48 uM up to 30 mins by circular dichroism method (reference value: 210 nanometer)
Clupeidae [8] = assay: Binding affinity to herring sperm DNA assessed as quenching constant at 303 K by fluorescence spectroscopic method
Clupeidae [9] = assay: Inhibition of ethidium bromide binding to herring sperm DNA assessed as quenching constant at 303 K after 30 mins by fluorescence spectroscopic assay
Clupeidae [10] = assay: Binding affinity to herring sperm DNA assessed as red shift at 80 uM after 30 mins by UV-visible spectrophotometric method
Clupeidae [11] = assay: Inhibition of ethidium bromide binding to herring sperm DNA assessed as Stern-Volmer quenching constant at 298 K after 30 mins by fluorescence spectroscopic assay
Clupeidae [12] = assay: Binding affinity to herring sperm DNA after 30 mins by UV-visible spectrophotometric method
Clupeidae [13] = assay: Inhibition of ethidium bromide binding to herring sperm DNA assessed as Stern-Volmer quenching constant at 303 K after 30 mins by fluorescence spectroscopic assay
Clupeidae [14] = assay: Binding affinity to herring sperm DNA groove assessed as up-field shift at 3 mg by 1H NMR method
Clupeidae [15] = assay: Binding affinity to herring sperm DNA groove assessed as hyperchromic effect at DNA to compound molar ratio of >5.5 after 30 mins by UV-visible spectrophotometric method
Clupeidae [16] = assay: Inhibition of ethidium bromide binding to herring sperm DNA assessed as quenching constant at 298 K after 30 mins by fluorescence spectroscopic assay
Clupeidae [17] = assay: Binding affinity to herring sperm DNA assessed as iodide quenching at 20 uM after 30 mins by fluorescence method (reference value: 27 L/mol)
Clupeidae [18] = assay: Inhibition of ethidium bromide binding to herring sperm DNA at 303 K after 30 mins by fluorescence spectroscopic assay
Clupeidae [19] = assay: Binding affinity to herring sperm DNA assessed as hypochromism at 80 uM after 30 mins by UV-visible spectrophotometric method
Clupeidae [20] = assay: Inhibition of ethidium bromide binding to herring sperm DNA at 298 K after 30 mins by fluorescence spectroscopic assay
Clupeidae [21] = assay: Binding affinity to herring sperm DNA assessed as quenching constant at 310 K by fluorescence spectroscopic method
Clupeidae [22] = assay: Binding affinity to herring sperm DNA at 303 K by fluorescence spectroscopic method
Clupeidae [23] = assay: Binding affinity to herring sperm DNA at 310 K by fluorescence spectroscopic method
Clupeidae [24] = assay: Inhibition of ethidium bromide binding to herring sperm DNA at 310 K after 30 mins by fluorescence spectroscopic assay
Clupeidae [25] = assay: Inhibition of ethidium bromide binding to herring sperm DNA assessed as fluorescence quenching of DNA-ethidium bromide complex up to 120 uM after 30 mins by fluorescence spectroscopic assay relative to control; design: scale not given: the % may be the effect or the level left
Clupeidae [26] = assay: Inhibition of ethidium bromide binding to herring sperm DNA assessed as quenching constant at 310 K after 30 mins by fluorescence spectroscopic assay
Clupeidae [27] = assay: Binding affinity to herring sperm DNA assessed as positive peak at 16 to 48 uM up to 30 mins by circular dichroism method (reference value: 280 nanometer)
Clupeidae [28] = assay: Binding affinity to herring sperm DNA assessed as Stern-Volmer quenching constant at 303 K by fluorescence spectroscopic method
Clupeidae [29] = assay: Binding affinity to herring sperm DNA at 298 K by fluorescence spectroscopic method
Clupeidae [30] = assay: Binding affinity to herring sperm DNA groove assessed as fluorescence quenching at DNA to compound molar ratio of >5.5 by fluorescence spectroscopic method
Clupeidae [31] = assay: Inhibition of ethidium bromide binding to herring sperm DNA assessed as Stern-Volmer quenching constant at 310 K after 30 mins by fluorescence spectroscopic assay
Clupeidae [32] = assay: Binding affinity to herring sperm DNA assessed as test compound fluorescence quenching by fluorescence spectroscopic method relative to control

Activity (Clupeidae [1]): Active
Activity (Clupeidae [2]): Active
Kq (Clupeidae [3]): 5.32 ×10¹¹ L/mol
KSV (Clupeidae [4]): 5.32 ×10³ L/mol
KSV (Clupeidae [5]): 4.63 ×10³ L/mol
Activity (Clupeidae [6]): Active
Activity (Clupeidae [7]): 245 nm
Kq (Clupeidae [8]): 5.63 ×10¹¹ L/mol
Kq (Clupeidae [9]): 1.28 ×10¹³ L/mol
Activity (Clupeidae [10]): Active
KSV (Clupeidae [11]): 1.18 ×10⁵ L/mol
Kapp (Clupeidae [12]): 1.55 ×10³ L/mol
KSV (Clupeidae [13]): 1.28 ×10⁵ L/mol
Activity (Clupeidae [14]): Active
Activity (Clupeidae [15]): Active
Kq (Clupeidae [16]): 1.18 ×10¹³ L/mol
KSV (Clupeidae [17]): 18.1 L/mol
Kb (Clupeidae [18]): 1.25 ×10⁵ L/mol
Activity (Clupeidae [19]): 60.7%
Kb (Clupeidae [20]): 1.23 ×10⁵ L/mol
Kq (Clupeidae [21]): 4.63 ×10¹¹ L/mol
Kb (Clupeidae [22]): 1.25 ×10⁴ L/mol
Kb (Clupeidae [23]): 1.7 ×10⁴ L/mol
Kb (Clupeidae [24]): 1.21 ×10⁵ L/mol
Activity (Clupeidae [25]): 87.8%
Kq (Clupeidae [26]): 1.45 ×10¹³ L/mol
Activity (Clupeidae [27]): 280 nm
KSV (Clupeidae [28]): 5.63 ×10³ L/mol
Kb (Clupeidae [29]): 1.38 ×10⁴ L/mol
Activity (Clupeidae [30]): Active
KSV (Clupeidae [31]): 1.45 ×10⁵ L/mol
Activity (Clupeidae [32]): 91%
Compound: NCCCNCCCCNCCCN1C(=O)c2ccc3c4c(ccc(c24)C1=O)C(=O)N(CCCNCCCCNCCCN)C3=O

Activity (Clupeidae [19]): 40%
Activity (Clupeidae [25]): 77.2%
Activity (Clupeidae [32]): 68.5%
Compound: NCCCNCCCCNCCCN1C(=O)c2cccc3cccc(c23)C1=O

Kapp (Clupeidae [12]): 1.47 ×10⁵ L/mol
Compound: NCCCCNCCCN
